Where a SMILES comes first, the peptide text is derived from it. Bridges are numbered along the chain shown (N, C = ends). [ ]: non-standard residue; d: D form. The star is where a group is joined. X1 = NC[C@@H](CC(=O)*)c1cccc(Cl)c1; Dab = NCC[C@H](N)C(=O)O; Dap = NC[C@H](N)C(=O)O
Legend:
[1] = system: E. coli ATCC 25922 (SEN) and E. coli NCTC13846 (MDR); test: microbe, parasite or virus in culture; type: cell-based, Escherichia coli; conditions: for MIC: across three biological replicates
Description: This study focused on multiple bacterial strains, as follows. For the FoR and ALE experiments, 2 strains per species were chosen: E. coli ATCC 25922, K. pneumoniae ATCC 10031, A. baumannii ATCC 17978, and P. aeruginosa ATCC BAA-3107 as sensitive (SEN) strains, and E. coli NCTC13846, K. pneumoniae ATCC 700603, A. baumannii ATCC BAA-1605 and P. aeruginosa LESB58 as multi-drug resistant (MDR) strains. Functional metagenomic screens were performed with E. coli ATCC 25922 and K. pneumoniae ATCC 10031 strains. To determine the dose-kill properties of the different antibiotics, an E. coli strain (ATCC 25922) expressing a yellow fluorescent protein (pZS2R, YFP, CHL^R) and a red fluorescent protein (pZS2R, mCherry, CHL^R) was used.
Unless otherwise indicated, cation-adjusted Mueller-Hinton Broth 2 (MHB, Millipore) medium was used throughout the study, except for SCH79797 (SCH).
(§1) A robotic liquid handling system was used to automatically prepare a 11 to 16-step serial dilution in 384-well microtiter plates (Greiner). A final concentration of 5 × 10^5 bacterial cells per mL were inoculated into each well containing 60 µL MHB medium. Bacterial cultures were incubated at 37 °C with continuous shaking (Infors shaker, 900 rpm with 3 mm throw) for 18 hours (2 replicates from each). Cell growth was monitored by measuring the optical density (OD600 values, using Biotek Synergy microplate reader). MIC was defined as the antibiotic concentration of complete growth inhibition (i.e., OD600 < 0.05). Relative MIC was calculated as follows:1 relativeMIC=MICevolved/MICancestor

[2] = system: E. coli ATCC 25922 (SEN) and E. coli NCTC13846 (MDR); test: Frequency-of-resistance (FoR) assay, relative MIC of mutants; type: cell-based, Escherichia coli
Description: The susceptibility of antibiotics to resistance development was evaluated in two strains of each bacterial species: a multidrug-resistant strain and an antibiotic-sensitive strain of Escherichia coli, Klebsiella pneumoniae, Acinetobacter baumannii, and Pseudomonas aeruginosa. To explore first-step resistance, we previously used a standard protocol for spontaneous frequency-of-resistance analysis (FoR assay) at multiple concentrations of each antibiotic[10],[28],[31]–[33]. […] For all other combinations, approximately 10^10 bacterial cells were exposed to one of each antibiotic on agar plates for two days at concentrations where the given strain is susceptible. We examined resistance levels by contrasting the minimum inhibitory concentration (MICs) of the mutated strains to the original wild-type bacterial strain (i.e., relative MIC).
To estimate the frequency of spontaneous mutations that confer resistance in a microbial population, we conducted a frequency of resistance (FoR) assay following established protocols[10],[31]–[33]. […] Prior to plating, bacteria were grown overnight in MHB medium at 37 °C and 250 RPM, then centrifuged and washed in MHB. All experiments were performed in triplicate, and plates were incubated at 37 °C for 48 hours. Total colony-forming units (CFUs) were determined by plating appropriate dilutions onto antibiotic-free MHB agar. Resistance frequencies were calculated by dividing the number of resistant colonies by the initial viable cell count. From the plates with the highest antibiotic concentration, ten colonies were selected for MIC determination and whole-genome sequencing.
as §1, with “relativeMIC=MICevolved/MICancestor […]” for “relativeMIC=MICevolved/MICancestor”
Supplementary Figure 3. Resistance levels following the frequency of resistance assay across bacterial strains. The level of resistance was measured as the fold change in relative MIC between evolved and ancestral strains. Data are grouped by bacterial strain (A. baumannii (AB), E. coli (EC), K. pneumoniae (KP), and P. aeruginosa (PA)) and categorized as either multidrug-resistant (MDR) or sensitive (SEN). Each data point represents a laboratory evolved line, and boxplots show the median, first and third quartiles, with whiskers indicating the 5th and 95th percentiles. […]
analysis was performed using two-sided Dunn’s post-hoc test with Benjamini-Hochberg correction for multiple comparisons (**/ * indicates p < 0.01/ 0.05). For detailed information on antibiotic and bacterial species, see Supplementary Table 1. For mode of action groups, refer to Table 1. Source data are provided as a Source Data file.

[3] = E. coli ATCC 25922 (EC-SEN), ancestor strain, sheet fig 2a
[4] = E. coli NCTC 13846 (EC-MDR), ancestor strain, sheet fig 2a
[5] = Escherichia coli ATCC 25922 (EC-SEN)
[6] = Escherichia coli NCTC 13846 (EC-MDR)
[7] = E. coli ATCC 25922 (EC-SEN), evolved line 1
[8] = E. coli ATCC 25922 (EC-SEN), evolved line 2
[9] = E. coli ATCC 25922 (EC-SEN), evolved line 3
[10] = E. coli NCTC 13846 (EC-MDR), evolved line 1
[11] = E. coli NCTC 13846 (EC-MDR), evolved line 1, evolved vs ancestor
[12] = E. coli NCTC 13846 (EC-MDR), evolved line 2
[13] = E. coli NCTC 13846 (EC-MDR), evolved line 2, evolved vs ancestor
[14] = E. coli NCTC 13846 (EC-MDR), evolved line 3
[15] = E. coli NCTC 13846 (EC-MDR), evolved line 3, evolved vs ancestor
[16] = ancestor EC-SEN (Escherichia coli ATCC 25922)
[17] = Escherichia coli ATCC 25922 (EC-SEN), evolved line 1
[18] = Escherichia coli ATCC 25922 (EC-SEN), evolved line 2
[19] = Escherichia coli ATCC 25922 (EC-SEN), evolved line 3
[20] = Escherichia coli ATCC 25922 (EC-SEN), evolved line 1 versus ancestor
[21] = Escherichia coli ATCC 25922 (EC-SEN), evolved line 2 versus ancestor
[22] = Escherichia coli ATCC 25922 (EC-SEN), evolved line 3 versus ancestor
[23] = Escherichia coli ATCC 25922 (EC-SEN), ancestor strain, sheet fig 2a

CC(C)C[C@@H]1NC(=O)[C@@H](Cc2ccccc2)NC(=O)[C@H](CCN)NC(=O)[C@@H](NC(=O)[C@H](CN)NC(=O)[C@@H](NC(=O)C[C@H](CN)c2cccc(Cl)c2)[C@@H](C)O)CCNC(=O)[C@H]([C@@H](C)O)NC(=O)[C@H](CCN)NC(=O)[C@H](CCN)NC1=O [SPR206] (X1-T[Dap][Dab][Dab][dF]L[Dab][Dab]T; lactam 3-C (inferred); N-terminus assumed)
MIC of ancestor ([1]; E. coli ATCC 25922 (EC-SEN), ancestor strain): 0.25 µg/mL
MIC of ancestor [1, 3]: 0.25 µg/mL
MIC of ancestor ([1]; E. coli NCTC 13846 (EC-MDR), ancestor strain): 4 µg/mL
MIC of ancestor [1, 4]: 4 µg/mL
MIC [1, 5]: 0.25 µg/mL
MIC [1, 6]: 4 µg/mL
MIC of evolved line [2, 7]: 32 µg/mL
Relative MIC ([2]; E. coli ATCC 25922 (EC-SEN), evolved line 1, evolved vs ancestor): 128
MIC of evolved line [2, 8]: 32 µg/mL
Relative MIC ([2]; E. coli ATCC 25922 (EC-SEN), evolved line 2, evolved vs ancestor): 128
MIC of evolved line [2, 9]: 32 µg/mL
Relative MIC ([2]; E. coli ATCC 25922 (EC-SEN), evolved line 3, evolved vs ancestor): 128
MIC of evolved line [2, 10]: 64 µg/mL
Relative MIC [2, 11]: 16
MIC of evolved line [2, 12]: 64 µg/mL
Relative MIC [2, 13]: 16
MIC of evolved line [2, 14]: 64 µg/mL
Relative MIC [2, 15]: 16
Relative MIC ([2]; FoR assay, Escherichia coli ATCC 25922 (EC-SEN), evolved line 1): 128
Relative MIC ([2]; FoR assay, Escherichia coli ATCC 25922 (EC-SEN), evolved line 2): 128
Relative MIC ([2]; FoR assay, Escherichia coli ATCC 25922 (EC-SEN), evolved line 3): 128
Relative MIC ([2]; FoR assay, Escherichia coli NCTC 13846 (EC-MDR), evolved line 1): 16
Relative MIC ([2]; FoR assay, Escherichia coli NCTC 13846 (EC-MDR), evolved line 2): 16
Relative MIC ([2]; FoR assay, Escherichia coli NCTC 13846 (EC-MDR), evolved line 3): 16

C[C@@H](O)[C@H]1C(=O)N2C(C(=O)O)=C(S[C@H]3CC[S@@+]([O-])C3)S[C@H]12 [Sulopenem]
MIC of ancestor [1, 4]: 0.0312 µg/mL
MIC [1, 5]: 0.0625 µg/mL
MIC [1, 6]: 0.03125 µg/mL
MIC of ancestor ([1]; ancestor EC-MDR (Escherichia coli NCTC 13846)): 0.0312 µg/mL
MIC of ancestor [1, 16]: 0.0312 µg/mL
MIC of evolved line [2, 10]: 0.0625 µg/mL
Relative MIC [2, 11]: 2
MIC of evolved line [2, 12]: 0.0312 µg/mL
Relative MIC [2, 13]: 1
MIC of evolved line [2, 14]: 0.0312 µg/mL
Relative MIC [2, 15]: 1
MIC of evolved line [2, 17]: 0.0156 µg/mL
MIC of evolved line [2, 18]: 0.0156 µg/mL
MIC of evolved line [2, 19]: 0.0156 µg/mL
Relative MIC [2, 20]: 1
Relative MIC [2, 21]: 1
Relative MIC [2, 22]: 1

C[C@@H]1CN2c3c(cc4c(N5C(=O)OC[C@@H]5C)noc4c3F)CC3(C(=O)NC(=O)NC3=O)[C@H]2[C@H](C)O1 [Zoliflodacin]
MIC of ancestor [1, 23]: 2 µg/mL
MIC ([1]; Escherichia coli, Escherichia coli ATCC 25922 (EC-SEN)): 2 µg/mL
MIC ([1]; Escherichia coli, Escherichia coli NCTC 13846 (EC-MDR)): 16 µg/mL
MIC of ancestor [1, 16]: 2 µg/mL
Relative MIC [2, 20]: 8
Relative MIC [2, 21]: 8
Relative MIC [2, 22]: 8
MIC ([2]; Escherichia coli, read-out: MIC of evolved line, Escherichia coli ATCC 25922 (EC-SEN), evolved line 2): 16 µg/mL

Tridecaptin M152-P3
MIC of ancestor [1, 23]: 4 µg/mL
MIC [1, 5]: 4 µg/mL
MIC [1, 6]: 8 µg/mL
MIC of ancestor [1, 16]: 4 µg/mL
MIC of evolved line [2, 17]: 4 µg/mL
MIC of evolved line [2, 18]: 4 µg/mL
MIC of evolved line [2, 19]: 4 µg/mL

polymyxin-B
MIC of ancestor [1, 3]: 1 µg/mL
MIC of ancestor [1, 4]: 4 µg/mL
MIC of ancestor ([1]; Escherichia coli NCTC 13846 (EC-MDR), ancestor): 4 µg/mL
MIC of ancestor [1, 16]: 1 µg/mL
MIC of evolved line [2, 7]: 4 µg/mL
MIC of evolved line [2, 8]: 1 µg/mL
MIC of evolved line [2, 9]: 8 µg/mL
MIC of evolved line [2, 10]: 4 µg/mL
MIC of evolved line [2, 12]: 4 µg/mL
MIC of evolved line [2, 14]: 4 µg/mL

From article PMC11845477, “Exploring the principles behind antibiotics with limited resistance” (Nature Communications, 2025)
